Results reported in US10100078B2, “Nanoparticles, process for preparation and use thereof as carrier for amphipatic and hydrophobic molecules in fields of medicine including cancer treatment and food related compounds” (priority 2011, dated 2018).

Legend:
[1] = tested on: PC-3 prostate cancer cells; test: FMCA cancer cell killing effect on PC-3 prostate cancer cells; type: cell-based, human; settings: PC-3, 3 days
Protocol: The human prostate adenocarcinoma, PC-3, cultured in a 50/50 mixture of HAM's F-12K and RPMI-1640. […] All media were supplemented with 10% heat-inactivated fetal calf serum (FCS), 2 mM glutamine, 100 μg/ml streptomycin and 100 IE/ml penicillin (all from Sigma Aldrich Co, St Louis, Mo., USA). All cell lines were incubated at 37° C. in humidified air containing 5% CO2.
The FMCA method is based on measurement of fluorescence generated from hydrolysis of fluorescein diacetate (FDA) to fluorescein by cells with intact plasma membranes. After above mentioned incubation for 3 days, the medium was removed by aspiration. […] The plates were incubated for 45 minutes and the generated fluorescence from each well was measured in a 96-well scanning fluorometer. The fluorescence is proportional to the number of intact cells in the well. Quality criteria for a successful analysis included a fluorescence signal in the control wells of more than five times of the mean blank value, a mean co-efficient of variation (CV) in the control wells of less than 30%.
The samples were 5-fold serially diluted in 6 steps starting from the concentration of 100 μg/ml, and incubated with PC-3 prostate cancer cells for 3 days. Then the cells were stained and read by the FMCA method.
PC-3 cells were exposed for 3 days at pre-determined concentrations of G3 and docetaxel separately and in combination as shown on the graph. […]

HL-60 AML cells = test: FMCA cancer cell killing effect on HL-60 AML cells; type: cell-based, human; settings: HL-60, 3 days, pre-determined concentrations, alone or combined; FIG. 7
Protocol: All media were supplemented with 10% heat-inactivated fetal calf serum (FCS), 2 mM glutamine, 100 μg/ml streptomycin and 100 IE/ml penicillin (all from Sigma Aldrich Co, St Louis, Mo., USA). All cell lines were incubated at 37° C. in humidified air containing 5% CO2.
The FMCA method is based on measurement of fluorescence generated from hydrolysis of fluorescein diacetate (FDA) to fluorescein by cells with intact plasma membranes. After above mentioned incubation for 3 days, the medium was removed by aspiration. After one wash with PBS, 100 μl/well of FDA dissolved in a physiological buffer (10 μg/ml) was added. The plates were incubated for 45 minutes and the generated fluorescence from each well was measured in a 96-well scanning fluorometer. The fluorescence is proportional to the number of intact cells in the well. Quality criteria for a successful analysis included a fluorescence signal in the control wells of more than five times of the mean blank value, a mean co-efficient of variation (CV) in the control wells of less than 30%.
The samples were 5-fold serial diluted in 6 steps starting from 100 μg/ml, and incubated or 3 days with HL-60 AML cells f. Then the cells were stained and read by the FMCA method.
HL-60 AML cells were exposed for 3 days at pre-determined concentrations of G3 and cytarabine separately and in combination of these two as shown on FIG. 7. […]

[2] = Detection of vitamin D3 in the water phase (DiaSorin Liaison); type: physicochemical; settings: 50% cholesterol and 50% vitamin D3 membrane, assay has about one percent cross-reactivity with vitamin D3
Protocol: Samples with cholecalciferol (vitamin D3) incorporated in G3 particles were analysed at a University Hospital Laboratory on a Liaison automatic instrument. Although the assay (DiaSorin Liaison) is designed to measure 25-HO-D3 it has about one percent cross-reactivity with non-hydroxylated vitamin D3.
G3 particles were formed using 50% cholesterol and 50% vitamin D3 to form the lipid membrane. Quil A was added into the water phase to generate the G3 particles (for details, please refer to Example 1). 100% Cholesterol and 100% Vitamin D3 in water were used as the controls. Samples with vitamin D3 incorporated in G3 particles were analysed at the Uppsala University Hospital Laboratory on a DiaSorin Liaison automatic instrument.

CO[C@H]1C(=O)[C@]2(C)[C@@H](OC)C[C@H]3OC[C@@]3(OC(C)=O)[C@H]2[C@H](OC(=O)c2ccccc2)[C@]2(O)C[C@H](OC(=O)[C@H](O)[C@@H](NC(=O)OC(C)(C)C)c3ccccc3)C(C)=C1C2(C)C [Cabazitaxel, cabazitaxel]
IC50 ([1]; Homo sapiens, 72 h, cabazitaxel from 100 μM, alone or with G3 fixed 1 μM, FIG. 11): 25.5 µM

CC(=O)O[C@@]12CO[C@@H]1C[C@H](O)[C@@]1(C)C(=O)[C@H](O)C3=C(C)[C@@H](OC(=O)[C@H](O)[C@@H](NC(=O)OC(C)(C)C)c4ccccc4)C[C@@](O)([C@@H](OC(=O)c4ccccc4)[C@H]21)C3(C)C [docetaxel]
cells killed ([1]; pre-determined concentrations, alone or combined, FIG. 10): 2%

Nc1ccn([C@@H]2O[C@H](CO)[C@@H](O)[C@@H]2O)c(=O)n1 [cytarabine]
cells killed (HL-60 AML cells): 55%

C=C1CC[C@H](O)C/C1=C/C=C1\CCC[C@]2(C)[C@@H]([C@H](C)CCCC(C)C)CC[C@@H]12 [vitamin D3 control, cholecalciferol]
vitamin D3 detected [2]: only trace amount
